In patent US20230144845A1 (The Regents of the University of California, priority 2016, published 2023):
Entries after “also recorded” stand apart in the source; their conditions may differ.

Assays:
Assay type in all cases: in vivo
C. elegans = test: Lifespan of adult worms (C. elegans); conditions: P<0.0001 (log-rank test) vs vehicle
6-week old C57/B6 mice [1] = test: Oral α-KG in drinking water in young mice: hair growth; conditions: 16 mM in drinking water, 10 weeks, vs negative controls
Description: (§1) Additionally, α-KG was administrated in drinking water to 6-week old C57/B6 mice for 10 weeks. α-KG was dissolved at 16 mM and water was changed every other day to ensure the integrity of the compound. Oral administration of α-KB was tested in 101-week old C57/B6 mice and lasted for 30 weeks. The concentration of α-KB was 8 mM and water was changed weekly. Pigmentation/hair changes were also monitored by assigning arbitrary values and photos.

6-week old C57/B6 mice [2] = test: Topical treatment of shaved dorsal skin of young mice: pigmentation and hair growth; conditions: 16 mM in Transdermal Gel, topical every other day, vs control
Description: Mice were topically (unless indicated otherwise) treated every other day with the indicated amount and photos were taken every week. Mice were monitored for the appearance of skin pigmentation, signaling the initiation of anagen. No hair growth (and no pigmentation) was assigned the arbitrary value of 0. Skin darkening was given a value from 0 to 100%, with the higher number indicating darker skin and visible hair growth.
Compounds were dissolved in Transdermal Gel at 16 mM and applied on mice dorsal skin every other day. To show the pigmentation progression, the appearance of skin pigmentation, signaling the initiation of anagen, was assigned an arbitrary value based on skin darkening. No hair growth (and no pigmentation) was assigned a value of 0 and darker skin/visible hair growth was assigned with higher numbers. Photos were taken weekly to document the pigmentation/hair changes.
Dorsal hair was shaved by trimmer at Week 7 and α-KB acid was dissolved in Transdermal Gel at 16 mM and applied on mice dorsal skin every other day.

[3] = tested on: 101-week old C57BL/6J mice; test: Oral α-KB in drinking water in aged mice: survival, aging traits, hair
Description: as §1
Based on the lifespan extending effects of α-KB in C. elegans (FIG. 2), the anti-aging properties in mice were examined. Aged 101-week old C57BL/6J mice were treated with 8 mM α-KB acid dissolved in drinking water for up to 30 weeks.

| Compound | mean lifespan (days of adulthood) (C. elegans) | hair growth after oral administration (6-week old C57/B6 mice [1]) | hair growth (6-week old C57/B6 mice [2]) | skin pigmentation (initiation of anagen) (6-week old C57/B6 mice [2]) | aging traits (such as cataracts) ([3]; aged mice, 8 mM in drinking water) | age-related hair loss / hair pigmentation and density on dorsal skin ([3]; aged mice, not shaved, 8 mM in drinking water, vs control) | lifespan / survival of old male mice ([3]; old male C57BL/6J mice, 8 mM in drinking water from 101 weeks for up to 30 weeks, P=0.0476 (Fisher's exact test)) |
| --- | --- | --- | --- | --- | --- | --- | --- |
| O=C(O)CCC(=O)C(=O)O [α-KG, alpha-ketoglutarate] | 26.1 days of adulthood | confirmed its effects for hair growth; also recorded: significantly induces hair growth | – | – | – | – | – |
| CC[C@H](O)C(=O)O [2-HB, 2-hydroxybutyrate] | 19.8 days of adulthood | – | had hair growing back faster; also recorded: accelerated pigmentation and hair growth on Day 14 | showed pigmentation earlier; also recorded: pigmentation improved; also recorded: accelerated pigmentation | – | – | – |
| CCC(=O)C(=O)O [α-KB, alpha-ketobutyrate] | 22.4 days of adulthood | – | hair growth was accelerated; also recorded: stimulates hair growth by Day 14 | started to show pigmentation patches after one week; also recorded: improved pigmentation | prevented aging traits in aged mice | exhibited black and thick hair; also recorded: delays or reduces age-related hair loss | significantly increased survival to beyond 131 weeks of age in male animals; also recorded: increases the lifespan of old male C57BL/6J mice |
